pIC50: −log10 of the molar value.
Biological target: VIM-2 metallo-beta-lactamase (Pseudomonas aeruginosa) (UniProt Q9K2N0)
Test: inhibition of VIM-2 nitrocefin hydrolysis – biochemical, epi-absorbance, dose response, late-stage follow-up (AID 2769)
Conditions: purified VIM-2, nitrocefin absorbance hydrolysis

SMILES | pIC50
Cc1cc[c]([Hg+])cc1 | 6.09
[Hg+][c]1ccccc1 | 6.00
O=C(O)c1cc[c]([Hg][Cl])cc1 | 5.59
CC(=O)Nc1cc[c]([Hg+])cc1 | 5.59
O=C(O)c1ccc[c]([Hg+])c1 | 6.09

Source: PubChem BioAssay AID2769 (The Scripps Research Institute Molecular Screening Center, 2010)
